Paper PMC5940854, “Nitrothiophene carboxamides, a novel narrow spectrum antibacterial series: Mechanism of action and Efficacy” (Scientific Reports, 2018)
≈ marks a conversion by molar mass, not a printed value. Where “and” joins values, the source holds several entries; their conditions need not be identical. Equal values may be shown once.

Assays:
Type in all cases: cell-based
E. coli ∆tolC JW5503-1 = test: MIC, E. coli ∆tolC; conditions: Escherichia coli, read-out: MIC tolC
Method: (§1) The inoculum used for all the experiments is derived from a single seed lot that is maintained as glycerol stocks at −80 °C and are sub cultured on LB plate for isolated colonies. Single colony of each strain is grown in M9 medium. All test compound stocks and dilutions are prepared in DMSO. Serial two-fold dilutions of compounds are prepared separately, with the concentrations ranging from 2 mg/mL to 0.015 mg/mL. To 150 µl (3–7 × 10^5 CFU/ml) of bacterial culture in 96 well microtitre plates, 3 μL compound from each of the dilutions is added to respective wells to obtain final concentrations ranging from 40 µg/mL to 0.3 µg/mL of the test compounds. Media control, culture control and appropriate reference drug controls are included. […] Growth is monitored by checking absorbance at 600 nm (A600). […] The samples from MIC and above concentrations are plated for MBC (Minimum Bactericidal Concentration). The samples are diluted 1:10 and plated on LB agar plates. […] The killing kinetics is determined by enumerating survivors at various time points following compound exposure. E. coli cells (~10^7 CFU/ml; A600 of 0.1) are treated with various concentrations (40 µg/mL to 0.3 µg/mL) of compounds in a 96-well microtitre plate. At various time intervals (0 to 8 h), 30 μl volumes of treated cultures are serially diluted and plated on LB agar plates. […] Data is expressed as the log10 CFU for each drug treatment.

E. coli ∆nfsA + ∆nfsB = test: microbe, parasite or virus in culture; conditions: for MIC: Escherichia coli, read-out: MIC ∆nfsA + ∆nfsB; for antibacterial activity in double knockout (in words): ΔnfsA and ΔnfsB double knockout strain
Method: (§2) To assess the biological relevance of the interacting protein and establish the link between nitroreductases to the antibacterial activity of NTC compounds, single (ΔnfsA or ΔnfsB) and double knockouts (ΔnfsA & ΔnfsB) of nitroreductases were generated by phage transduction using strains from the Keio collection.
as §1

E. coli ∆nfsA = test: microbe, parasite or virus in culture; conditions: Escherichia coli, read-out: MIC ∆nfsA
Method: as §2, §1

E. coli ∆acrB JW0451-2 = test: MIC, E. coli ∆acrB; set-up: MIC ∆acrB: unit not given beside the values; conditions: for MIC: Escherichia coli, read-out: MIC acrB; for MIC ∆acrB: Table S11
Method: as §1

ATCC25922 = test: MIC on E. coli ATCC25922; conditions: strain ATCC25922
Method: as §1

[1] = target: T1, AcrB efflux pump in E. coli BW25113 (Escherichia coli, UniProt P31224); test: Nile red efflux assay (whole-cell competition); conditions: for Concentration of compound required for complete inhibition of Nile red efflux (Tefflux50 >200 seconds): E. coli BW25113
T1 construct: endogenous in cells; host or cells: E. coli BW25113 (wild type)
T1 sequence (P0AE06 25-397): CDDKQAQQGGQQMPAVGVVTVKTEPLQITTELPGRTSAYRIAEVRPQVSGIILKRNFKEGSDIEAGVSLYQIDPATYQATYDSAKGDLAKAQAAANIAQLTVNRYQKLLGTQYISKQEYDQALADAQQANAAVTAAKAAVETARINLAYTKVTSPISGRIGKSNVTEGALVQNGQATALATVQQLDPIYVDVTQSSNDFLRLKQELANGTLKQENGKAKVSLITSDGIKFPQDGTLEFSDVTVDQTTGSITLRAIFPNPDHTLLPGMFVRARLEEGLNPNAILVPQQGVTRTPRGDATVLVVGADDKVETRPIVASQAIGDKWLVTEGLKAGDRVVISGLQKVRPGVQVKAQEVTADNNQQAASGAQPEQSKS
T1 sequence (P31224 whole entry): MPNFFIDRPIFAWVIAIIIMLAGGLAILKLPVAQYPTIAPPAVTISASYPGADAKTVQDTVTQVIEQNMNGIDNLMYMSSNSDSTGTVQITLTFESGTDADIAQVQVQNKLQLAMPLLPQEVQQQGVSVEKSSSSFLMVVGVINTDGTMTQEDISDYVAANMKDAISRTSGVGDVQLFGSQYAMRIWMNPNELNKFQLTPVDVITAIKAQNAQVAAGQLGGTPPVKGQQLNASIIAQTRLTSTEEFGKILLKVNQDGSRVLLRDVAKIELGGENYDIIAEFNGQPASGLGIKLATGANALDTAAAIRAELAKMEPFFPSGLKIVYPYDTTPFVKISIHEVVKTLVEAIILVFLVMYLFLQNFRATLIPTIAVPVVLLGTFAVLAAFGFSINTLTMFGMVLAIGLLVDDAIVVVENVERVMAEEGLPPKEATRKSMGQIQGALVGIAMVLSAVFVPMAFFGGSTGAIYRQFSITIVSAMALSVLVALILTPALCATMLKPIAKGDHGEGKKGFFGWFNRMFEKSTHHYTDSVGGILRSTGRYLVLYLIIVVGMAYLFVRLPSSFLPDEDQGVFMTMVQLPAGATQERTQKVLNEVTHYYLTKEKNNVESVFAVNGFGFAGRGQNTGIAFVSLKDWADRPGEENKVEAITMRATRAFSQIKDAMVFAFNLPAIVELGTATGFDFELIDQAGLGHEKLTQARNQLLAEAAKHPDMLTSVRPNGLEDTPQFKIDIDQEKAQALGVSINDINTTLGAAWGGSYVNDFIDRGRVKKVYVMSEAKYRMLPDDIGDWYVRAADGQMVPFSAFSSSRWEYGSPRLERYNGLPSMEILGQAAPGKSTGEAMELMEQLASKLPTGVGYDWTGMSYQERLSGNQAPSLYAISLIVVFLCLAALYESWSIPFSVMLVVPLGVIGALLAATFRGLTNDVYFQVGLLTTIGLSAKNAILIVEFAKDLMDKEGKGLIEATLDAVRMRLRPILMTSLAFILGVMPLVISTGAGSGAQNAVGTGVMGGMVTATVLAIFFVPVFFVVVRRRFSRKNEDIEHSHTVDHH
T1 sequence (P02930 23-493, further chain): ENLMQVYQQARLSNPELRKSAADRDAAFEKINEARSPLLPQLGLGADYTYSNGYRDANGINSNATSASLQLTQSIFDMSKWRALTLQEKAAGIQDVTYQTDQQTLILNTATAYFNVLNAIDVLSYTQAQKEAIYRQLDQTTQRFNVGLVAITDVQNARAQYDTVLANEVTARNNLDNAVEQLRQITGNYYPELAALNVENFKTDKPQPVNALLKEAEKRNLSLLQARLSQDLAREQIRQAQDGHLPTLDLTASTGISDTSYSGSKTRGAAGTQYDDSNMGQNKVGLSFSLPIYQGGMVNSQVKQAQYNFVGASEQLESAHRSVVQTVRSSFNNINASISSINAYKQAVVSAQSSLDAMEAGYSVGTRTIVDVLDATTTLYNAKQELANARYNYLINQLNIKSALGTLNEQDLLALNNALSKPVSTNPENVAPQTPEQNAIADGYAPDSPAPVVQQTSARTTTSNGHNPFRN
Method: The Nile red assay is adopted from Bohnert et al.[18]. An overnight culture of E. coli strain BW25113 is harvested and is resuspended in 20 mM potassium phosphate buffer (pH 7.0) containing 1 mM MgCl2 (PPB). The cells are adjusted to an A660 of 1.0 in PPB and aliquoted into glass tubes (2 ml each). Carbonylcyanide-m-chlorophenylhydrazone (CCCP; a protonophore that uncouples the electron transport chain and thus inhibits AcrB mediated efflux) is added to a final concentration of 10 µM (5 mM stock solution in 50% DMSO) and incubated for 15 minutes before adding the potential competitor at desired concentrations. Nile red is then added (stock solution of 5 mM in 10% dimethyl formamide-90% ethanol [vol/vol]) to a final concentration of 5 µM. The cell suspension is incubated at room temperature on a shaker for 3 hours. The cells are harvested and resuspended in 2 ml PPB in the presence of the competitor. The cell suspension is aliquoted in a fluorimeter cuvette, to which, 100 µl of 1 M Glucose is added to activate the electron transport chain. The rate of efflux is measured by Tefflux50, it is the time taken for 50% of Nile red to be effluxed out in presence of the compounds. The fluorescence is measured (Excitation 552 nm, Emission 636 nm) for 200 seconds.

[2] = 1µM compound, time for 50% of Nile red to be effluxed, read for 200 seconds

## COc1cc(-c2csc(NC(=O)c3ccc([N+](=O)[O-])s3)n2)ccc1Cl [compound 20, N-(4-(4-chloro-3-methoxyphenyl)thiazol-2-yl)-5-nitrothiophene-2-carboxamide]
E. coli ∆tolC JW5503-1
  MIC: 0.3 µg/mL (≈ 0.758 µM)
E. coli ∆nfsA + ∆nfsB
  MIC: > 40 µg/mL
  antibacterial activity in double knockout (in words): completely inactive
E. coli ∆nfsA
  MIC: 0.6 µg/mL (≈ 1.52 µM)
E. coli ∆acrB JW0451-2
  MIC: 0.3 µg/mL (≈ 0.758 µM)
  MIC ∆acrB: 0.3
ATCC25922
  MIC: 2 µg/mL (≈ 5.05 µM)
[1]; [2]
  Tefflux50: 69.24 s
[1]; 9µM compound
  Tefflux50: 71.14 s
[1]; 27µM compound
  Tefflux50: 72.65 s
[1]; 81µM compound
  Tefflux50: 104.21 s
[1]; 100µM compound
  Tefflux50: 200 s
[1]; 200µM compound
  Tefflux50: 200 s
[1]; 400µM compound
  Tefflux50: 200 s
[1]
  Concentration of compound required for complete inhibition of Nile red efflux (Tefflux50 >200 seconds): 100 µM

## O=C(Nc1nc(-c2ccc(F)cc2)cs1)c1ccc([N+](=O)[O-])s1 [compound 15, N-(4-(4-Fluorophenyl)thiazol-2-yl)-5-nitrothiophene-2-carboxamide]
E. coli ∆tolC JW5503-1
  MIC: 0.6 µg/mL (≈ 1.72 µM)
E. coli ∆nfsA + ∆nfsB
  MIC: > 40 µg/mL
  antibacterial activity in double knockout (in words): completely inactive
E. coli ∆nfsA
  MIC: 0.6 µg/mL (≈ 1.72 µM)
E. coli ∆acrB JW0451-2
  MIC: 0.6 µg/mL (≈ 1.72 µM)
  MIC ∆acrB: 0.6
ATCC25922
  MIC: 1.25 µg/mL (≈ 3.58 µM)
[1]; [2]
  Tefflux50: 61.52 s
[1]; 9µM compound
  Tefflux50: 72.51 s
[1]; 27µM compound
  Tefflux50: 81.24 s
[1]; 81µM compound
  Tefflux50: 124.25 s
[1]; 100µM compound
  Tefflux50: 200 s
[1]; 200µM compound
  Tefflux50: 200 s
[1]; 400µM compound
  Tefflux50: 200 s
[1]
  Concentration of compound required for complete inhibition of Nile red efflux (Tefflux50 >200 seconds): 100 µM

## O=C1CN(/N=C/c2ccc([N+](=O)[O-])o2)C(=O)N1 [nitrofurantoin, reference compound]
E. coli ∆nfsA + ∆nfsB
  MIC: 20 µg/mL
E. coli ∆nfsA + ∆nfsB; ∆nfsA & ∆nfsB vs WT
  fold elevation of MIC in the double knockout: about 8 fold
E. coli ∆nfsA
  MIC: 5 µg/mL (≈ 21 µM)
ATCC25922
  MIC: 20 µg/mL (≈ 84 µM)

## O=C(Nc1nc(-c2ccc(F)cc2F)cs1)c1ccc([N+](=O)[O-])s1 [compound 12, N-(4-(2,4-difluorophenyl)thiazol-2-yl)-5-nitrothiophene-2-carboxamide]
E. coli ∆tolC JW5503-1
  MIC: 0.15 µg/mL (≈ 0.408 µM)
E. coli ∆nfsA + ∆nfsB
  MIC: > 40 µg/mL
  antibacterial activity in double knockout (in words): completely inactive
E. coli ∆nfsA
  MIC: 0.6 µg/mL (≈ 1.63 µM)
E. coli ∆acrB JW0451-2
  MIC: 0.3 µg/mL (≈ 0.817 µM)
  MIC ∆acrB: 0.3
ATCC25922
  MIC: 1 µg/mL (≈ 2.72 µM)
[1]; [2]
  Tefflux50: 66.41 s
[1]; 9µM compound
  Tefflux50: 67.52 s
[1]; 27µM compound
  Tefflux50: 67.98 s
[1]; 81µM compound
  Tefflux50: 68.06 s
[1]; 100µM compound
  Tefflux50: 68.17 s
[1]; 200µM compound
  Tefflux50: 68.34 s
[1]; 400µM compound
  Tefflux50: 68 s and 68.25 s
[1]
  Concentration of compound required for complete inhibition of Nile red efflux (Tefflux50 >200 seconds): > 400 µM

## Cc1sc(NC(=O)c2ccc([N+](=O)[O-])s2)nc1-c1ccccc1 [compound 7, N-(5-Methyl-4-phenylthiazol-2-yl)-5-nitrothiophene-2-carboxamide]
E. coli ∆tolC JW5503-1
  MIC: 1.25 µg/mL (≈ 3.62 µM)
E. coli ∆nfsA + ∆nfsB
  MIC: > 40 µg/mL
E. coli ∆nfsA
  MIC: > 40 µg/mL
E. coli ∆acrB JW0451-2
  MIC: 1.25 µg/mL (≈ 3.62 µM)
[1]; [2]
  Tefflux50: 88.05 s
[1]; 9µM compound
  Tefflux50: 200 s
[1]; 27µM compound
  Tefflux50: 200 s
[1]; 81µM compound
  Tefflux50: 200 s
[1]; 100µM compound
  Tefflux50: 200 s
[1]; 200µM compound
  Tefflux50: 200 s
[1]; 400µM compound
  Tefflux50: 200 s
[1]
  Concentration of compound required for complete inhibition of Nile red efflux (Tefflux50 >200 seconds): 9 µM
